Test results taken from patent US20250376473A1, “PRMTS INHIBITOR AND USE THEREOF” (Cytosinlab Therapeutics Co., Ltd., priority 2022, published 2025).
Like-named read-outs stand apart in the source and are kept apart here.

How the values were obtained:
[1] = system: HCT116-MTAP-KO cells (HCT116 MTAP null); test: Proliferation inhibition of HCT116 MTAP-KO cells in vitro (CellTiter Glo); assay type: cell-based; conditions: 6 days, 9 concentrations starting from 3 μM, read-out: Cell proliferation inhibition rate HCT116 MTAP null IC50 (nm)
Description: (§1) Biological Test Example 2 Proliferation Inhibition of HCT116 and HCT116 MTAP-KO Cells in Vitro
(§2) HCT116 cell line was purchased from the Chinese Academy of Sciences Cell Bank, and the MTAP gene was knocked out by CRISPR/Cas9 technology to obtain HCT116-MTAP-KO cell line.
(§3) McCoy's 5A medium (Gibco, catalog No. 16600082), fetal bovine serum (Gibco, catalog No. 10099141C), penicillin-streptomycin double antibody (Gibco, catalog No. 15140122), pancreatic enzyme (Gibco, catalog No. 25200056), CellTiter Glo assay kit (Promega, catalog No. G7572), 384-well transparent flat-bottomed black walled cell culture plate (Corning, catalog No. 3764), ultra micro sampler (Tecan, catalog No.D300e), Multimode reader (Biotek, catalog No. SynergyHTX)
(§4) 1. Cell culture: HCT116 and HCT116-MTAP-KO cells were cultured in McCoy'5A medium+10% fetal bovine serum+1% penicillin-streptomycin double antibody; to ensure that they were always in the logarithmic growth phase and the cell viability greater than 95%.
(§5) 2. Compound concentration gradient preparation: The compound to be tested was added to a 384-well plate using an ultra micro sampler, starting from 30 μM (HCT116 cells) or 3 μM (HCT116-MTAP-KO cells), and diluted with DMSO at 3 times for a total of 9 concentrations and set up three duplicate wells.
(§6) 3. Treatment of cells with compounds: Trypsin-digested HCT116 or HCT116-MTAP-KO cell suspension was added to the 384-well plates spotted with the compounds to be tested at 40 μL per well, i.e., 100 cells per well, and the final concentration of DMSO was 0.4%. The cell culture plate was incubated at 37° C. in a 5% CO2 incubator for 6 days.
(§7) 4. Detection: 20 μL of CellTiter Glo reagent was added to each well of the cell culture plate and incubated at room temperature for 30 minutes. A multimode reader was used to detect the luminescence signal at […].
(§8) The data was fitted with GraphPad Prism 8.0 software using a four parameter inhibitor-reaction model to obtain the IC50 value (half inhibitory concentration) of the test compounds.

HCT116 MTAP WT cells = test: Proliferation inhibition of HCT116 cells in vitro (CellTiter Glo); assay type: cell-based; conditions: 6 days, 9 concentrations starting from 30 μM, read-out: Cell proliferation inhibition rate HCT116 MTAP WT IC50 (nm)
Description: as §1, §2, §3, §4, §5, §6, §7, §8

SMILES | IC50 ([1]; HCT116-MTAP null, 144 h) [µM] | IC50 (HCT116 MTAP WT cells; Homo sapiens, HCT-116, 144 h) [µM] | IC50 [1] [µM] | IC50 (HCT116 MTAP WT cells) [µM]
Cc1ncc2c(N)nc3ccc(C(=O)N(Cc4ccc(C(F)(F)F)cn4)C(C)c4ncccn4)cc3n12 (stereo not drawn) [Example 2] | 0.1 to 1 | 1 to 10 |  | 
Cc1nc(C)n2c1c(N)nc1ccc(C(=O)N(Cc3ccc(C(F)(F)F)cn3)C(C)c3ncccn3)cc12 (stereo not drawn) [Example 3] | < 0.1 | 1 to 10 |  | 
CCN(Cc1ccc(C(F)(F)F)cn1)C(=O)c1cc2c(cn1)nc(N)c1cnc(C)n12 [Example 9] | < 0.1 | 1 to 10 |  | 
Cc1ccc2c(N)nc3ccc(C(=O)N(Cc4ccc(C(F)(F)F)cn4)C(C)c4ncccn4)cc3n12 (stereo not drawn) [Example 12] | 0.1 to 1 | 1 to 10 |  | 
Cc1nc(C)n2c1c(N)nc1ccc(C(=O)N(Cc3ccc(C(F)(F)F)cn3)C(C)c3ncccn3)cc12 (stereo not drawn) [Example 14] |  |  | < 0.1 | 1 to 10
CCN(Cc1ccc(C(F)(F)F)cn1)C(=O)c1ccc2nc(N)c3c(C)nc(C)n3c2c1 [Example 15, 4-Amino-N-ethyl-1,3-dimethyl-N-((5-trifluoromethyl)pyridin-2-ylmethyl) imidazolo[1,5-a]quinoxalin-8-carboxamide] | 0.1 to 1 | 1 to 10 |  | 
Cc1ncc2c(N)nc3cnc(C(=O)N(Cc4ccc(C(F)(F)F)cn4)C(C)c4ncccn4)cc3n12 (stereo not drawn) [Example 16] | 0.1 to 1 | 1 to 10 |  | 
CCN(Cc1ccc(C(F)(F)F)cn1)C(=O)c1cc2c(cc1F)nc(N)c1cnc(C)n12 [Example 18] | < 0.1 | 1 to 10 |  | 
COCCN(Cc1cn2ccccc2n1)C(=O)c1cc2c(cc1F)nc(N)c1cnc(C)n12 [Example 27] | < 0.1 | 0.1 to 1 |  | 
Cc1cn2c(n1)c(N)nc1ccc(C(=O)N3[C@H](C)COC[C@@H]3c3cn4ccccc4n3)cc12 [Example 29] | 0.1 to 1 | 1 to 10 |  | 
Cc1cn2c(n1)c(N)nc1cc(F)c(C(=O)N3[C@H](C)COC[C@@H]3c3cn4cc(C(F)(F)F)ccc4n3)cc12 [Example 31] | < 0.1 | 0.1 to 1 |  | 
Cc1ncc2c(N)nc3cc(F)c(C(=O)N4C(C)COC[C@@H]4c4ncc(C(F)(F)F)cc4F)cc3n12 (stereo partly drawn) [Example 34] | < 0.1 | 1 to 10 |  | 
Cc1ncc2c(N)nc3cc(F)c(C(=O)N4[C@H](C)COC[C@@H]4c4cn5ccccc5n4)cc3n12 [Example 38] | 0.1 to 1 | 1 to 10 |  | 
Cc1ncc2c(N)nc3cc(F)c(C(=O)N(C)C4COc5cc(Br)ccc54)cc3n12 (stereo not drawn) [Example 40] | 0.1 to 1 | 1 to 10 |  | 
Cc1ncc2c(N)nc3cc(F)c(C(=O)N(C)C4COc5cc(-c6cnn(C(F)(F)F)c6)ccc54)cc3n12 (stereo not drawn) [Example 46] | 1 to 10 | 0.1 to 1 |  | 
Cc1ncc2c(N)nc3cc(F)c(C(=O)N(Cc4cn5cc(C#N)ccc5n4)c4cnn(C)c4)cc3n12 [Example 63] | 1 to 10 | 1 to 10 |  | 
Cc1ncc2c(N)nc3cc(F)c(C(=O)N(Cc4cn5ccccc5n4)C4CCN(C)C4)cc3n12 (stereo not drawn) [Example 65] | 1 to 10 | 1 to 10 |  | 
Cc1ncc2c(N)nc3cc(F)c(C(=O)N(Cc4cn5ccc(C(F)(F)F)cc5n4)c4cnn(C)c4)cc3n12 [Example 70] | 0.1 to 1 | 1 to 10 |  | 
CCN(Cc1nc(-c2ccc(C(F)(F)F)nc2)cs1)C(=O)c1cc2c(cc1F)nc(N)c1cnc(C)n12 [Example 73] | 0.1 to 1 | 1 to 10 |  | 
CCN(C(=O)c1cc2c(cc1F)nc(N)c1cnc(C)n12)C1COc2cc(-c3cnn(C(F)(F)F)c3)ccc21 (stereo not drawn) [Example 75] | 0.1 to 1 | 1 to 10 |  | 
CCN(Cc1nc(-c2cnn(C(F)(F)F)c2)cs1)C(=O)c1cc2c(cc1F)nc(N)c1cnc(C)n12 [Example 80] | 0.1 to 1 | 1 to 10 |  | 
Cc1nn(C)cc1N(Cc1cn2cc(C(F)(F)F)ccc2n1)C(=O)c1cc2c(cc1F)nc(N)c1cnn(C)c12 [Example 204] |  | 1 to 10 |  | 
Cn1nccc1N(Cc1cn2cc(C(F)(F)F)ccc2n1)C(=O)c1cc2c(cc1F)nc(N)c1cnn(C)c12 [Example 218] |  | 1 to 10 |  | 
C[C@@H]1COC[C@H](c2cn3ccccc3n2)N1C(=O)c1ccc2nc(N)c3cnn(C)c3c2c1 [Example 416] | 0.1 to 1 |  |  | 
